Columns and labels:
[1] = test system: calcium activated photoprotein (CAP); conditions: cited from earlier work; for RLC*: relative to native = 1.00; for Relative Intensity †: relative to native = 1
[2] = test system: Renilla muelleri Luciferase; assay: Luminescent activity of Renilla muelleri Luciferase with Coelenterazine analogues; type: biochemical; conditions: integrated over 10 sec
Description: FIG. 21 is luminescent activity of Renilla muelleri Luciferase with methoxy eCTZ and methoxy eCTZf.

[3] = Brightness of ultraviolet producing Coelenterazine analog
Description: Diagnosis of conjunctiva pathology and corneal scratches and other acute ocular emergencies such as foreign objects is best performed using an ultraviolet lamp and fluorescein dye. However there are situations, such as camping, or in poorer nations where electricity and ultraviolet lamps are not available. Another embodiment of this invention is a kit containing fluorescein dye, and a CARP manufactured using a ultraviolet producing Coelenterazine analog such as 400a or better because it is much brighter, is methoxy-eCoelenterazine analog contained and stabilized within a freeze dried CARP which can be used for eye examinations in the field.

[4] = test system: Rabbit conjunctiva; assay: Coelenterazine applied directly in Rabbit conjunctiva; type: in vivo; conditions: multiple sets applied directly in Rabbit conjunctiva, even at high concentrations
Description: Denuded and scratched corneal surfaces should release more calcium then a sealed intact healthy cornea and a CAP may be used alone or in conjunction with fluorescein dye to reveal the exact location of the foreign body or severity of the ocular corneal scratch.

Molecule	Half-Rise Time ‡ [1]	RLC* [1]	Relative Intensity † [1]	light-output relative to methoxy eCTZf [2]	brightness compared with 400a [3]	ocular injury [4]	duration of light emission ([1]; CAP manufactured with the analog, delayed spring-opening, over tens of minutes)
O=c1c(Cc2ccc(O)cc2)nc2c(CC3CCCC3)[nH]c(-c3ccc(O)cc3)cn1-2 [cp]	2 to 5 ms	0.63	28	–	–	–	–
O=c1c(Cc2ccccc2)nc2c(Cc3ccccc3)[nH]c(-c3ccc(O)cc3)cn1-2 [h]	6 to 30 ms	0.75	16	–	–	–	–
O=c1c(Cc2ccc(F)cc2)nc2c(Cc3ccccc3)[nH]c(-c3ccc(O)cc3)cn1-2 [f]	6 to 30 ms	0.80	20	–	–	–	–
O=c1c(Cc2ccccc2)nc2c(CC3CCCC3)[nH]c(-c3ccc(O)cc3)cn1-2 [hcp]	2 to 5 ms	0.65	500	–	–	–	–
Methoxy-e-Coelenterazine [Methoxy eCTZ]	–	–	–	approx. two-fold	much brighter	–	–
Oc1ccc(Cc2nc3c(Cc4ccccc4)nc(-c4ccc(O)cc4)cn3c2O)cc1 [Coelenterazine]	6 to 30 ms	1.00	1	–	–	failed to produce any ocular injury	–
Coelenterazine-Iodide	–	–	–	–	–	–	prolongs light emission

Reference: US11965122B2, “Method for visually enhancing the experience of an audience during a performance” (PROLUME, LTD., priority 2012, dated 2024)
